Experimental data published in patent publication US11760716B2, “Drug crystallization under microgravity conditions” (SPACEPHARMA R&D ISRAEL LTD., priority 2018, dated 2023).

Key:
[1] = Highest concentration of vilanterol dissolvable in ethanol at 37° C.; format: physicochemical; conditions: ethanol as the solvent
Protocol: In order to obtain optimal results in space, adjustment of the Vilanterol crystallization protocol to fit the system of the invention, and vice versa, was required. The original main compartment volume ranged between 0.1 to 1 ml. To maximize the amount of drug used in the experiment, and still meet the safety limitation approved by NASA, the main compartment (2) size was increased to 2 ml. The vilanterol concentration was adjusted according to the maximum temperature in which the payload could be stored on the ISS (37° C.).

[2] = Crystal width from scanning electron microscope micrographs (FIG. 3); format: physicochemical
Protocol: Gradual cooling of the vilanterol ethanolic solution (25 mg/ml) in rubber container (4), placed in one storage compartment (3), was carried out by reducing the temperature from 37° C. to 4° C. by storing the container in a refrigerator inside the ISS until the return to Earth. The results obtained upon return to Earth show the vilanterol space grown crystals in rubber container (4).
Vilanterol (250 mg) was dissolved in 10 ml ethanol to result in a vilanterol solution having a final concentration of 25 mg/ml. Main compartment (2) of cassette (1) (FIG. 1A) was filled with 2 ml of the prepared vilanterol/ethanol solution. In addition, one rubber container (4), placed in one storage compartment (3), was filled with 1 ml heptane (anti-solvent). Cassette (1) was kept at 37° C.
After 10 days from launch into space, one plunger was released thereby activating one rubber container (4) in one storage compartment (3), allowing 1 ml of heptane to flow into main compartment (2), which, as mentioned above, comprises the vilanterol/ethanol solution. […]
The experiments performed in space on board of the ISS yielded crystals that were substantially larger and of higher crystalline order compared to their Earth-grown equivalents. […] The quantity of material manufactured in orbit was sufficient for complete characterization study and further processing tests. […]

highest concentration of vilanterol that could be dissolved [1]: 2.5 % w/v
width of crystals ([2]; crystals crystalized in space under microgravity (FIG. 3, right hand panel)): 10-20 microns
width of crystals ([2]; crystals crystalized on Earth, 1 g (FIG. 3, left hand panel)): a few
Structure (SMILES): OCc1cc([C@@H](O)CNCCCCCCOCCOCc2c(Cl)cccc2Cl)ccc1O [vilanterol, 4-{(1R)-2-[(6-{2-[(2,6-dichlorobenzyl)oxy]ethoxy}hexyl)amino]-1-hydroxyethyl}-2-(hydroxymethyl)phenol]
